Measured values as given in the supplement of paper PMC10307832.

How the values were obtained:
Assay in all cases: relative viability (nuclei count vs DMSO), 5 days (fraction); higher = more cells survive
[1] = compound: COc1cc2nccc(Oc3ccc(NC(=O)C4(C(=O)Nc5ccc(F)cc5)CC4)cc3)c2cc1OC [Cabozantinib] + Nc1nc2[nH]cc(CCc3ccc(C(=O)N[C@@H](CCC(=O)O)C(=O)O)cc3)c2c(=O)[nH]1 [Pemetrexed] (partner 0.2 µM)
How it was run: (§1)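 One day after seeding in 1536-well plates, lung cancer cell lines were dosed by pin tool. Dosing was either single-drug or a fixed anchor-drug dose plus five library-drug doses (not always all listed) in √10 steps. After 5 days, nuclei were stained in one fix-and-stain step and counted on 4× images, and relative viability is the nuclei count of treated wells over that of vehicle wells, given as the median of duplicate plates.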

Cabozantinib + Lapatinib = compound: COc1cc2nccc(Oc3ccc(NC(=O)C4(C(=O)Nc5ccc(F)cc5)CC4)cc3)c2cc1OC [Cabozantinib] + CS(=O)(=O)CCNCc1ccc(-c2ccc3ncnc(Nc4ccc(OCc5cccc(F)c5)c(Cl)c4)c3c2)o1 [Lapatinib] (partner 2 µM)
How it was run: as §1

Kobe2602 + Luminespib = compound: C1=CC(=CC=C1NC(=S)NNC2=C(C=C(C=C2[N+](=O)[O-])C(F)(F)F)[N+](=O)[O-])F [Kobe2602] + CCNC(=O)c1noc(-c2cc(C(C)C)c(O)cc2O)c1-c1ccc(CN2CCOCC2)cc1 [Luminespib] (partner 0.01 µM)
How it was run: as §1

Zosuquidar + Decitabine = compound: O[C@@H](COc1cccc2ncccc12)CN1CCN([C@@H]2c3ccccc3[C@@H]3[C@H](c4ccccc42)C3(F)F)CC1 [Zosuquidar] + Nc1ncn([C@H]2C[C@H](O)[C@@H](CO)O2)c(=O)n1 [Decitabine] (partner 2 µM)
How it was run: as §1

UMC-11 gave a relative viability ([1]; first compound 0.02 µM) of 0.802, a relative viability ([1]; first compound 0.06325 µM) of 0.879 and a relative viability ([1]; first compound 0.2 µM) of 0.782. It also gave a relative viability ([1]; first compound 0.6325 µM) of 0.837, a relative viability ([1]; first compound 2 µM) of 0.747 and a relative viability (Cabozantinib + Lapatinib; first compound 0.02 µM) of 1.05. It also gave a relative viability (Cabozantinib + Lapatinib; first compound 0.06325 µM) of 1.41, a relative viability (Cabozantinib + Lapatinib; first compound 0.2 µM) of 0.86 and a relative viability (Cabozantinib + Lapatinib; first compound 0.6325 µM) of 1.07. It also gave a relative viability (Cabozantinib + Lapatinib; first compound 2 µM) of 0.91, a relative viability (Kobe2602 + Luminespib; first compound 0.2 µM) of 1.04 and a relative viability (Kobe2602 + Luminespib; first compound 0.6325 µM) of 1.12. It also gave a relative viability (Kobe2602 + Luminespib; first compound 2 µM) of 0.959, a relative viability (Kobe2602 + Luminespib; first compound 6.325 µM) of 1.04 and a relative viability (Kobe2602 + Luminespib; first compound 20 µM) of 1.05. For the same cell line, the relative viability (Zosuquidar + Decitabine; first compound 0.01 µM) was 0.567, the relative viability (Zosuquidar + Decitabine; first compound 0.03162 µM) was 0.575 and the relative viability (Zosuquidar + Decitabine; first compound 0.1 µM) was 0.538. It also gave a relative viability (Zosuquidar + Decitabine; first compound 0.3162 µM) of 0.666 and a relative viability (Zosuquidar + Decitabine; first compound 1 µM) of 0.59.
